From patent publication US4303592A (priority 1980, dated 1981)
Like-named read-outs stand apart in the source and are kept apart here.

How the values were obtained:
Trypsin [1] = target: T1, Trypsin (Bos taurus, UniProt P00760); test: inactivation of trypsin by meta amidinophenylmethylsulfonylfluoride; type: biochemical, bovine; conditions: equimolar or greater amounts of reagent; FIG. 2
T1 sequence (P00760 24-246): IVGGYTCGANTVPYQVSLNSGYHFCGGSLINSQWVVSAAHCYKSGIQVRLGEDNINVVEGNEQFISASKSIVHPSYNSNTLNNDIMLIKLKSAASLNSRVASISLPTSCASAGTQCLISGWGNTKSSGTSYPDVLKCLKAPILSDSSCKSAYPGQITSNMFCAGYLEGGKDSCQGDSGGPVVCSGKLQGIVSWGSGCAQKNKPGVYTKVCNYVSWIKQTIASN
Procedure: (§1) m-Amidinophenylmethylsulfonylfluoride was tested for inhibitory activity against bovine trypsin and chymotrypsin.

chymotrypsin [2] = test: inhibition of chymotrypsin by m-amidinophenylmethylsulfonylfluoride; type: biochemical; conditions: 30 minutes, four-fold molar excess
Procedure: as §1

Cl-r = test: inhibition/inactivation of human Clr; type: biochemical
Trypsin [3] = target: T1, Trypsin; test: inhibition/inactivation of bovine trypsin; type: biochemical; conditions: for % Activity Remaining: Trypsin 60.6 μM, PAPMSF 127 μM
acetyl cholinesterase = test: inhibition of bovine acetyl cholinesterase
Thrombin = Thrombin (Homo sapiens, UniProt P00734); test: inhibition/inactivation of human thrombin; type: biochemical; conditions: for % Activity Remaining: Thrombin 74.5 μM, PAPMSF 159 μM
Cl-s = target: T2, Cl-s (Homo sapiens, UniProt P09871); test: inhibition/inactivation of human Cls; type: biochemical; conditions: for % Activity Remaining: Cl-s 27.5 μM, PAPMSF 64 μM
T2 sequence (P09871 438-688 limits assumed): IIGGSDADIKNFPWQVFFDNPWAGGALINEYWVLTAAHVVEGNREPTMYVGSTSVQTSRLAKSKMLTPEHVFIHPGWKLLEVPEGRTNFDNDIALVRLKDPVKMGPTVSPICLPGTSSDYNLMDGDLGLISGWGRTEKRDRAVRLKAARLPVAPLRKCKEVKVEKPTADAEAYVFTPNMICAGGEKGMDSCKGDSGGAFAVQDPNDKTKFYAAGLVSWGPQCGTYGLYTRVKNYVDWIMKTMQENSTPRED
T2 sequence (P09871 16-437 partner limits assumed): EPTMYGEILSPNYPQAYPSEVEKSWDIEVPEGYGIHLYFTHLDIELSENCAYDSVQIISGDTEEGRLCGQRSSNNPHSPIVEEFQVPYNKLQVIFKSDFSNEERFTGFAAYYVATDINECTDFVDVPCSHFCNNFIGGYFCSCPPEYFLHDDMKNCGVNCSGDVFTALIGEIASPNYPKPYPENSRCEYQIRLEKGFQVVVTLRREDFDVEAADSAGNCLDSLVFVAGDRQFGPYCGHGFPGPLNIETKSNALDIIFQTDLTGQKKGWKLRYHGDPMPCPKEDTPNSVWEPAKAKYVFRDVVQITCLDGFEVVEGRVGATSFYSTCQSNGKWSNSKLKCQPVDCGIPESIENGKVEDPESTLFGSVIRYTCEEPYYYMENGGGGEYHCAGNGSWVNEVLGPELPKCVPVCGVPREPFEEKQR

serine proteases [4] = test: serine protease inactivation by known inactivators (background); type: biochemical; conditions: approximately 2:1 reagent:enzyme; Table 1
chymotrypsin [5] = test: inhibition of bovine chymotrypsin; type: biochemical; conditions: neutral pH, approximately 10-fold excess of reagent over enzyme; FIG. 1
serine proteases [6] = test: reactivity of para versus meta form
trypsin [7] = conditions: large excess with respect to enzyme; cited from earlier work
chymotrypsin [8] = conditions: large excess with respect to enzyme; cited from earlier work
[9] = neutral pH, approximately 10-fold excess of reagent over enzyme, FIG. 1

N=C(N)c1cccc(CS(=O)(=O)F)c1 [MAPMSF, m-Amidinophenylmethylsulfonylfluoride]
inactivation (in words) (Trypsin [1]): slowly inactivated
loss of activity (chymotrypsin [2]): no loss of activity

N=C(N)c1ccc(CS(=O)(=O)F)cc1 [PAPMSF, p-amidinophenylmethylsulfonylfluoride]
% Activity Remaining (Cl-r; Cl-r 4.8 μgm/ml, PAPMSF 130 μM, 10 min): 25%
inactivation (in words) (Cl-r; [9]): rapidly inactivated
% Activity Remaining (Trypsin [3]; 1 min): 0%
% Activity Remaining (Trypsin [3]; 5 min): 0%
% Activity Remaining (Trypsin [3]; 10 min): 0%
recovery of enzymatic activity after dialysis (irreversibility) (Trypsin [3]; dialysis of inactivated trypsin): did not lead to recovery of enzymatic activity
inactivation (in words) (Trypsin [3]; [9]): rapidly inactivated
rate of inactivation of trypsin, pH dependence (Trypsin [3]; pH 3.0, 5.0 or 7.4): essentially unchanged
reaction with acetyl cholinesterase (in words) (acetyl cholinesterase): does not react with acetyl cholinesterase
toxic properties compared with diisopropylfluorophosphate (in words) (acetyl cholinesterase; inferred from lack of reaction with acetyl cholinesterase): does not have the toxic properties previously described for diisopropylfluorophosphate
inhibition (in words) (acetyl cholinesterase; [9]): not inhibited
% Activity Remaining (Thrombin; 1 min): 26%
% Activity Remaining (Thrombin; 5 min): 24%
% Activity Remaining (Thrombin; 10 min): 21%
inactivation (in words) (Thrombin; [9]): rapidly inactivated
% Activity Remaining (Cl-s; 1 min): 60%
% Activity Remaining (Cl-s; 5 min): 59%
% Activity Remaining (Cl-s; 10 min): 52%
inactivation (in words) (Cl-s; [9]): rapidly inactivated
inhibition at lower concentrations (in words) (serine proteases [4]): still an effective inhibitor
solubility (solubility in water): ≤ 10 mM
inhibition (in words) (chymotrypsin [5]): not inhibited
stability in water at high pH (stability; aqueous solutions above pH 8): can hydrolyze to sulfonic acid in water at high pH
stability in solution in organic solvents (stability; methanol, acetone, ethanol, dimethylsulfoxide, acetonitrile, dimethylformamide and the like): stable in solution in organic solvents
stability of salts at physiological conditions (stability; pH and contact with aqueous based body fluids): good stability at physiological conditions
reactivity / activity relative to meta form (serine proteases [6]): higher activity than the meta form

O=S(=O)(F)Cc1ccccc1 [Phenylmethanesulfonylfluoride]
inhibition (in words) (trypsin [7]): inhibits both trypsin and chymotrypsin
inhibition (in words) (chymotrypsin [8]): inhibits both trypsin and chymotrypsin
